Results published in ChEMBL document CHEMBL1201861, “Genomics of Drug Sensitity in Cancer screening data, Wellcome Trust Sanger Institute”.

Tests used:
Assay in all cases: cells
CP66-MEL = format: functional, cell-based, Homo sapiens; conditions: Homo sapiens, CP66-MEL;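 further: growth inhibition of CP66-MEL cells determined in a cell viability assay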
Description: SANGER: Inhibition of human CP66-MEL cell growth in a cell viability assay.

D283 Med = format: functional, cell-based, Homo sapiens; conditions: Homo sapiens, D283 Med
Description: SANGER: Inhibition of human D-283MED cell growth in a cell viability assay.

DSH1 = format: functional, cell-based, Homo sapiens; conditions: Homo sapiens, DSH1;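 further: growth inhibition of human DSH1 cells, measured with a cell viability readout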
Description: SANGER: Inhibition of human DSH1 cell growth in a cell viability assay.

ES3 = format: functional, cell-based, Homo sapiens; conditions: Homo sapiens, ES3;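 further: growth inhibition of ES3 cells, read out with a cell viability assay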
Description: SANGER: Inhibition of human ES3 cell growth in a cell viability assay.

ES8 = format: functional, cell-based, Homo sapiens; conditions: Homo sapiens, ES8;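 further: growth inhibition of human ES8 cells, read out with a cell viability assay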
Description: SANGER: Inhibition of human ES8 cell growth in a cell viability assay.

EW-11 = format: functional, cell-based, Homo sapiens; conditions: Homo sapiens, EW-11;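 further: growth inhibition of human EW-11 cells, measured with a cell viability assay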
Description: SANGER: Inhibition of human EW-11 cell growth in a cell viability assay.

EW-24 = format: functional, cell-based, Homo sapiens; conditions: Homo sapiens, EW-24;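 further: human EW-24 cancer cell line, growth inhibition read out via a cell viability assay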
Description: SANGER: Inhibition of human EW-24 cell growth in a cell viability assay.

EW-3 = format: functional, cell-based, Homo sapiens; conditions: Homo sapiens, EW-3;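 further: cell viability assay read-out, IC50 reflects inhibition of growth of the EW-3 cells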
Description: SANGER: Inhibition of human EW-3 cell growth in a cell viability assay.

GB-1 = format: functional, cell-based, Homo sapiens; conditions: Homo sapiens, GB-1;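 further: growth of GB-1 cells judged by a viability assay, IC50 marks the concentration inhibiting growth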
Description: SANGER: Inhibition of human GB-1 cell growth in a cell viability assay.

GR-ST = format: functional, cell-based, Homo sapiens; conditions: Homo sapiens, GR-ST
Description: SANGER: Inhibition of human GR-ST cell growth in a cell viability assay.

HCC2218 = format: functional, cell-based, Homo sapiens; conditions: Homo sapiens, HCC2218;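 further: cell viability assay read-out, with IC50 given as the concentration that inhibits growth of the cell line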
Description: SANGER: Inhibition of human HCC2218 cell growth in a cell viability assay.

HCE-T = format: functional, cell-based, Homo sapiens; conditions: Homo sapiens, HCE-T;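 further: cell viability assay read-out, reporting inhibition of HCE-T cell growth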
Description: SANGER: Inhibition of human HCE-T cell growth in a cell viability assay.

HEL = format: functional, cell-based, Homo sapiens; conditions: Homo sapiens, HEL;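 further: growth inhibition of HEL cells, read out with a cell viability assay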
Description: SANGER: Inhibition of human HEL cell growth in a cell viability assay.

IA-LM = format: functional, cell-based, Homo sapiens; conditions: Homo sapiens, IA-LM;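 further: cell viability assay measuring growth inhibition of human IA-LM cells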
Description: SANGER: Inhibition of human IA-LM cell growth in a cell viability assay.

IST-MEL1 = format: functional, cell-based, Homo sapiens; conditions: Homo sapiens, IST-MEL1;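 further: growth inhibition of the cell line, read out with a cell viability assay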
Description: SANGER: Inhibition of human IST-MEL1 cell growth in a cell viability assay.

JVM-3 = format: functional, cell-based, Homo sapiens; conditions: Homo sapiens, JVM-3;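 further: growth inhibition of human JVM-3 cells, read out with a cell viability assay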
Description: SANGER: Inhibition of human JVM-3 cell growth in a cell viability assay.

KARPAS-45 = format: functional, cell-based, Homo sapiens; conditions: Homo sapiens, KARPAS-45;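 further: inhibition of cell line growth, read out through a viability assay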
Description: SANGER: Inhibition of human KARPAS-45 cell growth in a cell viability assay.

KM12 = format: functional, cell-based, Homo sapiens; conditions: Homo sapiens, KM12;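 further: KM12 cell growth inhibition, read out with a cell viability assay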
Description: SANGER: Inhibition of human KM12 cell growth in a cell viability assay.

KNS-81-FD = format: functional, cell-based, Homo sapiens; conditions: Homo sapiens, KNS-81-FD;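 further: growth inhibition of KNS-81-FD cells, read out with a cell viability assay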
Description: SANGER: Inhibition of human KNS-81-FD cell growth in a cell viability assay.

LC-2-ad = format: functional, cell-based, Homo sapiens; conditions: Homo sapiens, LC-2-ad;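 further: growth inhibition of human LC-2-ad cells, read out with a cell viability assay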
Description: SANGER: Inhibition of human LC-2-ad cell growth in a cell viability assay.

LNCaP-Clone-FGC = format: functional, cell-based, Homo sapiens; conditions: Homo sapiens, LNCaP-Clone-FGC
Description: SANGER: Inhibition of human LNCaP-Clone-FGC cell growth in a cell viability assay.

LU-134-A = format: functional, cell-based, Homo sapiens; conditions: Homo sapiens, LU-134-A
Description: SANGER: Inhibition of human LU-134-A cell growth in a cell viability assay.

MC116 = format: functional, cell-based, Homo sapiens; conditions: Homo sapiens, MC116;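 further: growth inhibition of MC116 cells, read out with a cell viability assay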
Description: SANGER: Inhibition of human MC116 cell growth in a cell viability assay.

MEG-01 = format: functional, cell-based, Homo sapiens; conditions: Homo sapiens, MEG-01;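 further: growth inhibition of MEG-01 cells, read out by a cell viability assay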
Description: SANGER: Inhibition of human MEG-01 cell growth in a cell viability assay.

NCI-H23 = format: functional, cell-based, Homo sapiens; conditions: Homo sapiens, NCI-H23;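 further: cell viability assay measuring growth inhibition of NCI-H23 cells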
Description: SANGER: Inhibition of human NCI-H23 cell growth in a cell viability assay.

NCI-H526 = format: functional, cell-based, Homo sapiens; conditions: Homo sapiens, NCI-H526;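 further: growth inhibition of the human NCI-H526 cell line, measured by a cell viability assay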
Description: SANGER: Inhibition of human NCI-H526 cell growth in a cell viability assay.

NCI-H747 = format: functional, cell-based, Homo sapiens; conditions: Homo sapiens, NCI-H747;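 further: growth inhibition of human NCI-H747 cells, read out by a cell viability assay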
Description: SANGER: Inhibition of human NCI-H747 cell growth in a cell viability assay.

NKM-1 = format: functional, cell-based, Homo sapiens; conditions: Homo sapiens, NKM-1;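 further: growth inhibition of NKM-1 cells, read out with a cell viability assay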
Description: SANGER: Inhibition of human NKM-1 cell growth in a cell viability assay.

NOMO-1 = format: functional, cell-based, Homo sapiens; conditions: Homo sapiens, NOMO-1;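 further: growth inhibition of human NOMO-1 cells measured by a cell viability assay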
Description: SANGER: Inhibition of human NOMO-1 cell growth in a cell viability assay.

RH-1 = format: functional, cell-based, Homo sapiens; conditions: Homo sapiens, RH-1;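 further: growth inhibition of human RH-1 cells, read out with a cell viability assay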
Description: SANGER: Inhibition of human RH-1 cell growth in a cell viability assay.

SH-4 = format: functional, cell-based, Homo sapiens; conditions: Homo sapiens, SH-4;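 further: growth inhibition of SH-4 cells, read out with a cell viability assay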
Description: SANGER: Inhibition of human SH-4 cell growth in a cell viability assay.

SHP77 = format: functional, cell-based, Homo sapiens, SHP-77; conditions: Homo sapiens, SHP77;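 further: growth inhibition of human SHP-77 cells measured by a cell viability assay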
Description: SANGER: Inhibition of human SHP-77 cell growth in a cell viability assay.

SK-MEL-2 = format: functional, cell-based, Homo sapiens; conditions: Homo sapiens, SK-MEL-2;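 further: growth inhibition of human SK-MEL-2 cells measured with a cell viability assay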
Description: SANGER: Inhibition of human SK-MEL-2 cell growth in a cell viability assay.

SK-N-DZ = format: functional, cell-based, Homo sapiens; conditions: Homo sapiens, SK-N-DZ;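 further: growth inhibition of the cancer cell line, read out through a viability assay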
Description: SANGER: Inhibition of human SK-N-DZ cell growth in a cell viability assay.

SK-N-FI = format: functional, cell-based, Homo sapiens; conditions: Homo sapiens, SK-N-FI;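 further: cell viability assay measuring growth inhibition of human SK-N-FI cells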
Description: SANGER: Inhibition of human SK-N-FI cell growth in a cell viability assay.

SK-UT-1 = format: functional, cell-based, Homo sapiens; conditions: Homo sapiens, SK-UT-1;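 further: growth inhibition of SK-UT-1 cells, measured by a cell viability assay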
Description: SANGER: Inhibition of human SK-UT-1 cell growth in a cell viability assay.

SW 954 = format: functional, cell-based, Homo sapiens; conditions: Homo sapiens, SW 954;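 further: growth inhibition of SW954 human cancer cells, read out as cell viability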
Description: SANGER: Inhibition of human SW954 cell growth in a cell viability assay.

TE-1 = format: functional, cell-based, Homo sapiens; conditions: Homo sapiens, TE-1
Description: SANGER: Inhibition of human TE-1 cell growth in a cell viability assay.

A388 = format: functional, cell-based, Homo sapiens; conditions: Homo sapiens, A388;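 further: growth inhibition of human A388 cells, read out with a cell viability assay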
Description: SANGER: Inhibition of human A388 cell growth in a cell viability assay.

A4-Fuk = format: functional, cell-based, Homo sapiens; conditions: Homo sapiens, A4-Fuk;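 further: growth inhibition of A4-Fuk cells, read out by a cell viability assay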
Description: SANGER: Inhibition of human A4-Fuk cell growth in a cell viability assay.

A498 = format: functional, cell-based, Homo sapiens; conditions: Homo sapiens, A498;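 further: growth inhibition of human A498 cells, read out with a cell viability assay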
Description: SANGER: Inhibition of human A498 cell growth in a cell viability assay.

ACN = format: functional, cell-based, Homo sapiens; conditions: Homo sapiens, ACN;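 further: growth inhibition of the human ACN cell line, read out via cell viability testing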
Description: SANGER: Inhibition of human ACN cell growth in a cell viability assay.

BE-13 = format: functional, cell-based, Homo sapiens; conditions: Homo sapiens, BE-13;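 further: growth inhibition of human BE-13 cells, measured with a cell viability assay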
Description: SANGER: Inhibition of human BE-13 cell growth in a cell viability assay.

TE-12 = format: functional, cell-based, Homo sapiens; conditions: Homo sapiens, TE-12;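 further: growth inhibition of TE-12 cells, read out by a cell viability assay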
Description: SANGER: Inhibition of human TE-12 cell growth in a cell viability assay.

U-266 = format: functional, cell-based, Homo sapiens; conditions: Homo sapiens, U-266
Description: SANGER: Inhibition of human U-266 cell growth in a cell viability assay.

U-87 MG = format: functional, cell-based, Homo sapiens, U-87MG ATCC; conditions: Homo sapiens, U-87 MG;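 further: growth inhibition of the cells measured with a viability assay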
Description: SANGER: Inhibition of human U-87-MG cell growth in a cell viability assay.

CCRF-CEM = format: functional, cell-based, Homo sapiens; conditions: Homo sapiens, CCRF-CEM;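 further: inhibition of CCRF-CEM cell growth, measured by a cell viability assay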
Description: SANGER: Inhibition of human CCRF-CEM cell growth in a cell viability assay.

COLO-668 = format: functional, cell-based, Homo sapiens; conditions: Homo sapiens, COLO-668
Description: SANGER: Inhibition of human COLO-668 cell growth in a cell viability assay.

OCCCNc1cc(-c2ccnc(Nc3cccc(Cl)c3)n2)ccn1
IC50 (CP66-MEL): > 256 nM
IC50 (D283 Med): > 256 nM
IC50 (DSH1): > 256 nM
IC50 (ES3): > 256 nM
IC50 (ES8): > 256 nM
IC50 (EW-11): > 256 nM
IC50 (EW-24): > 256 nM
IC50 (EW-3): > 256 nM
IC50 (GB-1): 38 nM
IC50 (GR-ST): 174 nM
IC50 (HCC2218): > 256 nM
IC50 (HCE-T): 47.3 nM
IC50 (HEL): 114 nM
IC50 (IA-LM): 93.2 nM
IC50 (IST-MEL1): 126 nM
IC50 (JVM-3): > 256 nM
IC50 (KARPAS-45): 104 nM
IC50 (KM12): 124 nM
IC50 (KNS-81-FD): > 256 nM
IC50 (LC-2-ad): 16.6 nM
IC50 (LNCaP-Clone-FGC): > 256 nM
IC50 (LU-134-A): 123 nM
IC50 (MC116): 40.7 nM
IC50 (MEG-01): 126 nM
IC50 (NCI-H23): 245 nM
IC50 (NCI-H526): > 256 nM
IC50 (NCI-H747): 47.3 nM
IC50 (NKM-1): 79.1 nM
IC50 (NOMO-1): > 256 nM
IC50 (RH-1): > 256 nM
IC50 (SH-4): > 256 nM
IC50 (SHP77): 155 nM
IC50 (SK-MEL-2): > 256 nM
IC50 (SK-N-DZ): > 256 nM
IC50 (SK-N-FI): > 256 nM
IC50 (SK-UT-1): 157 nM
IC50 (SW 954): 170 nM
IC50 (TE-1): > 256 nM
IC50 (A388): 47.7 nM
IC50 (A4-Fuk): 28 nM
IC50 (A498): > 256 nM
IC50 (ACN): 165 nM
IC50 (BE-13): 76.9 nM
IC50 (TE-12): 48.5 nM
IC50 (U-266): > 256 nM
IC50 (U-87 MG): > 256 nM
IC50 (CCRF-CEM): 47 nM
IC50 (COLO-668): 236 nM

C#Cc1cccc(Nc2ncnc3cc(OCCOC)c(OCCOC)cc23)c1 [ERLOTINIB]
IC50 (CP66-MEL): > 2000 nM
IC50 (D283 Med): > 2000 nM
IC50 (DSH1): > 2000 nM
IC50 (ES3): > 2000 nM
IC50 (ES8): > 2000 nM
IC50 (EW-11): > 2000 nM
IC50 (EW-24): 594 nM
IC50 (EW-3): > 2000 nM
IC50 (GB-1): > 2000 nM
IC50 (GR-ST): > 2000 nM
IC50 (HCC2218): > 2000 nM
IC50 (HCE-T): > 2000 nM
IC50 (HEL): > 2000 nM
IC50 (IST-MEL1): > 2000 nM
IC50 (JVM-3): > 2000 nM
IC50 (KM12): > 2000 nM
IC50 (KNS-81-FD): > 2000 nM
IC50 (LC-2-ad): > 2000 nM
IC50 (LNCaP-Clone-FGC): > 2000 nM
IC50 (LU-134-A): > 2000 nM
IC50 (MC116): > 2000 nM
IC50 (MEG-01): > 2000 nM
IC50 (NCI-H23): > 2000 nM
IC50 (NCI-H526): > 2000 nM
IC50 (NCI-H747): > 2000 nM
IC50 (NKM-1): > 2000 nM
IC50 (NOMO-1): > 2000 nM
IC50 (RH-1): > 2000 nM
IC50 (SH-4): > 2000 nM
IC50 (SHP77): > 2000 nM
IC50 (SK-MEL-2): > 2000 nM
IC50 (SK-N-DZ): > 2000 nM
IC50 (SK-UT-1): > 2000 nM
IC50 (SW 954): > 2000 nM
IC50 (TE-1): 1400 nM
IC50 (A388): 1090 nM
IC50 (A4-Fuk): > 2000 nM
IC50 (ACN): > 2000 nM
IC50 (BE-13): > 2000 nM
IC50 (TE-12): 54.4 nM
IC50 (U-266): > 2000 nM
IC50 (U-87 MG): > 2000 nM
IC50 (CCRF-CEM): > 2000 nM
IC50 (COLO-668): > 2000 nM

CC[C@H](CO)Nc1nc(NCc2ccccc2)c2ncn(C(C)C)c2n1 [SELICICLIB]
IC50 (CP66-MEL): > 16000 nM
IC50 (D283 Med): > 16000 nM
IC50 (DSH1): > 16000 nM
IC50 (ES3): > 16000 nM
IC50 (ES8): > 16000 nM
IC50 (EW-11): > 16000 nM
IC50 (EW-24): > 16000 nM
IC50 (EW-3): > 16000 nM
IC50 (GB-1): > 16000 nM
IC50 (GR-ST): > 16000 nM
IC50 (HCC2218): > 16000 nM
IC50 (HCE-T): > 16000 nM
IC50 (HEL): > 16000 nM
IC50 (IST-MEL1): > 16000 nM
IC50 (JVM-3): > 16000 nM
IC50 (KARPAS-45): > 16000 nM
IC50 (KM12): > 16000 nM
IC50 (KNS-81-FD): > 16000 nM
IC50 (LC-2-ad): > 16000 nM
IC50 (LNCaP-Clone-FGC): > 16000 nM
IC50 (LU-134-A): > 16000 nM
IC50 (MC116): > 16000 nM
IC50 (MEG-01): 13800 nM
IC50 (NCI-H23): > 16000 nM
IC50 (NCI-H526): > 16000 nM
IC50 (NCI-H747): > 16000 nM
IC50 (NKM-1): > 16000 nM
IC50 (NOMO-1): > 16000 nM
IC50 (RH-1): > 16000 nM
IC50 (SH-4): > 16000 nM
IC50 (SHP77): > 16000 nM
IC50 (SK-MEL-2): > 16000 nM
IC50 (SK-N-DZ): > 16000 nM
IC50 (SK-N-FI): > 16000 nM
IC50 (SK-UT-1): 10300 nM
IC50 (SW 954): > 16000 nM
IC50 (TE-1): > 16000 nM
IC50 (A388): > 16000 nM
IC50 (A4-Fuk): > 16000 nM
IC50 (ACN): > 16000 nM
IC50 (BE-13): > 16000 nM
IC50 (TE-12): > 16000 nM
IC50 (U-266): > 16000 nM
IC50 (U-87 MG): > 16000 nM
IC50 (CCRF-CEM): > 16000 nM
IC50 (COLO-668): > 16000 nM
